Patent US10208074B2, “Pyrazole compounds and method for making and using the compounds” (Rigel Pharmaceuticals, Inc., priority 2015, dated 2019)
Structures can show the parent of a compound that is named as a salt. Where two headings read alike, the source gives them in different places.

Tests used:
IL-23 (p19/p40) = assay: IL23-p19 ELISA, Dendritic, LPS (compound screening using DC cells); assay type: cell-based, Human; settings: PBMC-derived DC cells, IFNγ primed, LPS 1 μg/ml, 18 hours, 10 pt, read-out: IL23-p19 ELISA, Dendritic, LPS, 10 pt, EC50
How it was run: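 IL-23 in supernatants quantified by sandwich ELISA (anti-p19 capture, biotinylated anti-p40 detection, chemiluminescent readout) after 18 h LPS (1 μg/ml) stimulation. Cells were monocyte-derived DCs (GM-CSF/IL-4, 7 d), IFNγ-primed 24 h and given compound 1 h before LPS; viability by CellTiter Glo.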

IL-23p19 = assay: LPS induced IL23p19 in THP-1 cells (with IFNγ primed) assay; assay type: cell-based, Human; settings: THP-1 cells, IFNγ primed, LPS 1 ug/mL, 18 hours, 10 pt, read-out: IL23-p19 ELISA, THP1-IFNy, LPS, 10 pt EC50
How it was run: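 Readout is secreted IL-23p19, quantified by chemiluminescent sandwich ELISA after 18 h LPS (1 ug/mL) stimulation of THP-1 cells that had been IFNγ-primed (50 ng/mL, ~18 h) and given compound 1 h beforehand at 37 °C. EC50 derived by curve fit; cytotoxicity tracked with Cell Titer Glo.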

Compound	EC50 (IL-23 (p19/p40); Homo sapiens, 18 h) [nM]	EC50 (IL-23p19; Homo sapiens, THP-1, 18 h) [nM]	further results
CCOCCn1cc(NC(=O)c2csc(-c3cn[nH]c3)n2)c(-c2nccs2)n1 [II-109, N-(1-(2-ethoxyethyl)-3-(thiazol-2-yl)-1H-pyrazol-4-yl)-2-(1H-pyrazol-4-yl)thiazole-4-carboxamide]	327	140	–
O=C(Nc1cn([C@H]2C[C@@H](OCC(F)(F)F)C2)nc1-c1ncccc1F)c1csc(-c2cn[nH]c2)n1 [II-165, N-(3-(3-fluoropyridin-2-yl)-1-((cis)-3-(2,2,2-trifluoroethoxy)cyclobutyl)-1H-pyrazol-4-yl)-2-(1H-pyrazol-4-yl)thiazole-4-carboxamide]	45.4	44.4	–
Cn1cc(NC(=O)c2ccc(-c3cnn(COP(=O)(O)O)c3)o2)c(-c2ccccn2)n1 [Compound I-81, [4-{5-((1-Methyl-3-(pyridine-2-yl)-1H-pyrazol-4-yl)carbamoyl)furan-2yl}-1H-pyrazol-1-yl]methyl dihydrogen phosphate]	960	153	–
CCO[C@H]1C[C@@H](n2cc(NC(=O)c3csc(-c4cn[nH]c4F)n3)c(-c3ccccn3)n2)C1 [II-72, N-(1-((1s,3s)-3-ethoxycyclobutyl)-3-(pyridin-2-yl)-1H-pyrazol-4-yl)-2-(5-fluoro-1H-pyrazol-4-yl)thiazole-4-carboxamide]	–	–	EC50 (IL-23 (p19/p40)): 140 nM; EC50 (IL-23p19): 1140 nM
CCO[C@H]1C[C@@H](n2cc(NC(=O)c3csc(-c4cnn(COP(=O)(O)O)c4)n3)c(-c3ccccn3)n2)C1 [II-83, (4-(4-((1-((1,3-cis)-3-ethoxycyclobutyl)-3-(pyridin-2-yl)-1H-pyrazol-4-yl)carbamoyl)thiazol-2-yl)-1H-pyrazol-1-yl)methyl dihydrogen phosphate]	–	–	EC50 (IL-23 (p19/p40)): 241 nM; EC50 (IL-23p19): 86.3 nM
CC(C)O[C@H]1C[C@@H](n2cc(NC(=O)c3ccc(-c4cn[nH]c4)o3)c(-c3ccccn3)n2)C1 [Compound I-114, N-(1-((1s,3s)-3-isopropoxycyclobutyl)-3-(pyridin-2-yl)-1H-pyrazol-4-yl)-5-(1H-pyrazol-4-yl)furan-2-carboxamide]	61.6	49.3	–
O=C(Nc1cn(C2CN(CC(F)(F)F)C2)nc1-c1ccccn1)c1ccc(-c2cn[nH]c2)o1 [Compound I-97, TFA salt]	32.9	36.2	–
CCO[C@H]1C[C@H](n2cc(NC(=O)c3csc(-c4cn[nH]c4)n3)c(-c3ccccn3)n2)C1 [II-12, N-(1-((1,3-trans)-3-ethoxycyclobutyl)-3-(pyridin-2-yl)-1H-pyrazol-4-yl)-2-(1H-pyrazol-4-yl)thiazole-4-carboxamide]	61.6	135	–
Cn1cc(NC(=O)c2ccc(-c3cnn(COP(=O)(O)O)c3)o2)c(-c2ccccn2)n1 [Compound I-82, Sodium [4-{5-((1-Methyl-3-(pyridine-2-yl)-1H-pyrazol-4-yl)carbamoyl)furan-2-yl}-1H-pyrazol-1-yl]methyl phosphate]	–	–	EC50 (IL-23 (p19/p40); phosphate): 780 nM; EC50 (IL-23p19; phosphate): 205 nM
O=C(Nc1cn(C2CCOCC2)nc1-c1nccs1)c1ccc(-c2cn[nH]c2)o1 [Compound I-65, 5-(1H-pyrazol-4-yl)-N-(1-(tetrahydro-2H-pyran-4-yl)-3-(thiazol-2-yl)-1H-pyrazol-4-yl)furan-2-carboxamide]	–	–	EC50 (IL-23 (p19/p40)): 199 nM; EC50 (IL-23p19): 54.3 nM
CC(OC(=O)C(C)C)OC(=O)n1cc(-c2nc(C(=O)Nc3cn(C)nc3-c3ccccn3)cs2)cn1 (stereo not drawn) [II-2, 1-(isobutyryloxy)ethyl 4-(4-((1-methyl-3-(pyridin-2-yl)-1H-pyrazol-4-yl)carbamoyl)thiazol-2-yl)-1H-pyrazole-1-carboxylate]	298	196	–
CCO[C@@H]1C[C@H](n2cc(NC(=O)c3csc(-c4cn[nH]c4)n3)c(-c3ccccn3)n2)C1F (stereo partly drawn) [II-155, N-(1-((cis)-3-ethoxy-2-fluorocyclobutyl)-3-(pyridin-2-yl)-1H-pyrazol-4-yl)-2-(1H-pyrazol-4-yl)thiazole-4-carboxamide]	61.2	399	–
O=C(Nc1cn(CCN2CCOCC2)nc1-c1ccccn1)c1ccc(-c2cn[nH]c2)o1 [Compound I-111, N-(1-(2-morpholinoethyl)-3-(pyridin-2-yl)-1H-pyrazol-4-yl)-5-(1H-pyrazol-4-yl)furan-2-carboxamide]	26.8	29.1	–
COCCOCCn1cc(NC(=O)c2csc(-c3cn[nH]c3)n2)c(-c2ccccn2)n1 [II-37, N-(1-(2-(2-methoxyethoxy)ethyl)-3-(pyridin-2-yl)-1H-pyrazol-4-yl)-2-(1H-pyrazol-4-yl)thiazole-4-carboxamide]	193	129	–
Cn1cc(NC(=O)c2ccc(-c3cn[nH]c3)o2)c(-c2ccc(OC3COC3)cn2)n1 [Compound I-108, N-(1-methyl-3-(5-(oxetan-3-yloxy)pyridin-2-yl)-1H-pyrazol-4-yl)-5-(1H-pyrazol-4-yl)furan-2-carboxamide]	730	491	–
O=C(Nc1cn(C2CCOC2)nc1-c1ccccn1)c1csc(-c2cn[nH]c2)n1 (stereo not drawn) [II-43, 2-(1H-pyrazol-4-yl)-N-(3-(pyridin-2-yl)-1-(tetrahydrofuran-3-yl)-1H-pyrazol-4-yl)thiazole-4-carboxamide formic acid salt]	50.2	27.8	–
CC(C)(O)Cn1cc(NC(=O)c2csc(-c3cn[nH]c3)n2)c(-c2ccccn2)n1 [II-1, N-(1-(2-hydroxy-2-methylpropyl)-3-(pyridin-2-yl)-1H-pyrazol-4-yl)-2-(1H-pyrazol-4-yl)thiazole-4-carboxamide]	779	129	–
COc1ccc(COCC(C)(C)OC(=O)n2cc(-c3nc(C(=O)Nc4cn(C)nc4-c4ccccn4)cs3)cn2)cc1 [II-6, 1-((4-methoxybenzyl)oxy)-2-methylpropan-2-yl 4-(4-((1-methyl-3-(pyridin-2-yl)-1H-pyrazol-4-yl)carbamoyl)thiazol-2-yl)-1H-pyrazole-1-carboxylate]	6890	87.4	–
COCCOCCn1cc(NC(=O)c2coc(-c3cc[nH]n3)n2)c(-c2ccccn2)n1 [III-6, N-(1-(2-(2-methoxyethoxy)ethyl)-3-(pyridin-2-yl)-1H-pyrazol-4-yl)-2-(1H-pyrazol-3-yl)oxazole-4-carboxamide]	217	238	–
COCCn1cc(NC(=O)c2ccc(-c3cn[nH]c3)o2)c(-c2ccccn2)n1 [Compound I-5, N-(1-(2-methoxyethyl)-3-(pyridin-2-yl)-1H-pyrazol-4-yl)-5-(1H-pyrazol-4-yl)furan-2-carboxamide]	136	82.6	–
CCO[C@H]1CC[C@H](n2cc(NC(=O)c3csc(-c4cn[nH]c4)n3)c(-c3nnco3)n2)CC1 [II-178, N-(1-((1r,4r)-4-ethoxycyclohexyl)-3-(1,3,4-oxadiazol-2-yl)-1H-pyrazol-4-yl)-2-(1H-pyrazol-4-yl)thiazole-4-carboxamide]	37.3	119	–
CCOCCn1cc(NC(=O)c2csc(-c3cn[nH]c3)n2)c(-c2ccccn2)n1 [II-25, N-(1-(2-ethoxyethyl)-3-(pyridin-2-yl)-1H-pyrazol-4-yl)-2-(1H-pyrazol-4-yl)thiazole-4-carboxamide]	–	–	EC50 (IL-23 (p19/p40)): 170 nM; EC50 (IL-23p19): 146 nM
O=C(Nc1cn(C2CCOC2)nc1-c1nccs1)c1csc(-c2cn[nH]c2)n1 (stereo not drawn) [II-115, 2-(1H-pyrazol-4-yl)-N-(1-(tetrahydrofuran-3-yl)-3-(thiazol-2-yl)-1H-pyrazol-4-yl)thiazole-4-carboxamide]	159	43.8	–
CCOCCn1cc(NC(=O)c2ccc(-c3cnn(CC)c3)o2)c(-c2ccccn2)n1 [Compound I-39, N-(1-(2-ethoxyethyl)-3-(pyridin-2-yl)-1H-pyrazol-4-yl)-5-(1-ethyl-1H-pyrazol-4-yl)furan-2-carboxamide formate]	4320	1950	–
O=C(Nc1cn([C@H]2CC[C@H](O)CC2)nc1-c1ccccn1)c1ccc(-c2cn[nH]c2)o1 [Compound I-126, N-(1-((1r,4r)-4-hydroxycyclohexyl)-3-(pyridin-2-yl)-1H-pyrazol-4-yl)-5-(1H-pyrazol-4-yl)furan-2-carboxamide formate]	21.5	81.9	–
COCCn1cc(NC(=O)c2csc(-c3c[nH]nc3C)n2)c(-c2ccccn2)n1 [II-29, N-(1-(2-methoxyethyl)-3-(pyridin-2-yl)-1H-pyrazol-4-yl)-2-(3-methyl-1H-pyrazol-4-yl)thiazole-4-carboxamide, formic acid salt]	248	135	–
CCOCCn1cc(NC(=O)c2ccc(-c3cn[nH]c3)o2)c(-c2nccs2)n1 [Compound I-119, N-(1-(2-ethoxyethyl)-3-(thiazol-2-yl)-1H-pyrazol-4-yl)-5-(1H-pyrazol-4-yl)furan-2-carboxamide]	–	–	EC50 (IL-23 (p19/p40)): 430 nM; EC50 (IL-23p19): 154 nM
